Reference: US8921362B2, “6,7-dialkoxy quinazoline derivatives and methods of treating drug resistant and other tumors” (Natco Pharma Limited, priority 2008, dated 2014)

How the values were obtained:
Experiment in all cases: KinomeScan
Format in all cases: binding
Settings in all cases: read-out: % Ctrl @ 10000 nM
[1] = target: T1, RIOK3 (Homo sapiens, UniProt O14730)
T1 construct: host or cells: E. coli host derived from BL21, T7 phage display
How it was run: (§1)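 An active-site competition format was used, with T7 phage displaying the kinase and affinity beads carrying immobilized ligand. Blocking buffer contained SeaBlock, 1% BSA, 0.05% Tween 20 and 1 mM DTT.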

[2] = target: T2, FGFR1 (Homo sapiens, UniProt P11362)
T2 construct: host or cells: T7 phage in E. coli host derived from BL21
How it was run: as §1

[3] = target: T3, GSK3A (Homo sapiens, UniProt P49840)
T3 construct: host or cells: T7 phage in E. coli host derived from BL21
How it was run: as §1

[4] = target: T4, CAMK1 (Homo sapiens, UniProt Q14012)
T4 construct: host or cells: E. coli host derived from BL21
How it was run: as §1

[5] = target: T5, TAK1 (Homo sapiens, UniProt O43318)
T5 construct: host or cells: T7 phage grown in E. coli (BL21-derived)
How it was run: as §1

[6] = target: T6, MLCK (Homo sapiens, UniProt Q32MK0)
T6 construct: host or cells: T7 phage grown in E. coli host derived from BL21
How it was run: as §1

[7] = target: T7, EGFR(G719S) (Homo sapiens, UniProt P00533, G719S)
T7 construct: purchased Ambit Biosciences Corp (KinomeScan); host or cells: T7 phage in E. coli host derived from BL21
How it was run: as §1

[8] = target: T8, LKB1 (Homo sapiens, UniProt Q15831)
T8 construct: host or cells: E. coli host derived from the BL21 strain, infected with T7 phage
How it was run: as §1

[9] = target: T9, CSNK2A2 (Homo sapiens, UniProt P19784)
T9 construct: purchased Ambit Biosciences Corp (KinomeScan); host or cells: T7 phage in E. coli host derived from BL21
How it was run: as §1

[10] = target: T10, TNNI3K (Homo sapiens, UniProt Q59H18)
T10 construct: host or cells: E. coli host derived from BL21, T7 phage
How it was run: as §1

[11] = target: T11, RIPK2 (Homo sapiens, UniProt O43353)
T11 construct: host or cells: E. coli host derived from BL21, T7 phage display
How it was run: as §1

[12] = target: T12, MST1 (Homo sapiens, UniProt Q13043)
T12 construct: host or cells: T7 phage grown in E. coli host derived from BL21
How it was run: as §1

[13] = target: T13, KIT (Homo sapiens, UniProt P10721)
T13 construct: host or cells: T7 phage grown in E. coli host derived from BL21
How it was run: as §1

[14] = target: T14, IKK-alpha (Homo sapiens, UniProt O15111)
T14 construct: host or cells: T7 phage grown in E. coli host derived from BL21
How it was run: as §1

[15] = target: T15, PRKD2 (Homo sapiens, UniProt Q9BZL6)
T15 construct: host or cells: T7 phage in E. coli host derived from BL21
How it was run: as §1

[16] = target: T16, IRAK3 (Homo sapiens, UniProt Q9Y616)
T16 construct: host or cells: T7 phage grown in E. coli host derived from BL21
How it was run: as §1

[17] = target: T17, PLK3 (Homo sapiens, UniProt Q9H4B4)
T17 construct: host or cells: T7 phage in E. coli host derived from BL21
How it was run: as §1

[18] = target: T18, GSK3B (Homo sapiens, UniProt P49841)
T18 construct: host or cells: T7 phage in E. coli host derived from BL21
How it was run: as §1

[19] = target: T19, NEK6 (Homo sapiens, UniProt Q9HC98)
T19 construct: host or cells: T7 phage grown in E. coli host derived from BL21
How it was run: as §1

[20] = target: T20, CDK7 (Homo sapiens, UniProt P50613)
T20 construct: host or cells: T7 phage in E. coli host derived from BL21
How it was run: as §1

[21] = target: T21, FRK (Homo sapiens, UniProt P42685)
T21 construct: host or cells: T7 phage in E. coli host derived from BL21
How it was run: as §1

[22] = target: T22, FLT1 (Homo sapiens, UniProt P17948)
T22 construct: host or cells: T7 phage in E. coli host derived from BL21
How it was run: as §1

[23] = target: T23, PRKD1 (Homo sapiens, UniProt Q15139)
T23 construct: host or cells: T7 phage in E. coli host derived from BL21
How it was run: as §1

[24] = target: T24, INSR (Homo sapiens, UniProt P06213)
T24 construct: host or cells: T7 phage grown in E. coli host derived from BL21
How it was run: as §1

[25] = target: T25, BMPR1A (Homo sapiens, UniProt P36894)
T25 construct: host or cells: E. coli host derived from BL21
How it was run: as §1

[26] = target: T26, RIPK4 (Homo sapiens, UniProt P57078)
T26 construct: host or cells: E. coli host derived from BL21, T7 phage display
How it was run: as §1

[27] = target: T27, ASK1 (Homo sapiens, UniProt Q99683)
T27 construct: host or cells: E. coli host derived from BL21
How it was run: as §1

[28] = target: T28, MAP4K4 (Homo sapiens, UniProt O95819)
T28 construct: host or cells: E. coli host derived from the BL21 strain, infected with T7 phage
How it was run: as §1

[29] = target: T29, INSRR (Homo sapiens, UniProt P14616)
T29 construct: host or cells: T7 phage grown in E. coli host derived from BL21
How it was run: as §1

[30] = target: T30, RET (Homo sapiens, UniProt P07949)
T30 construct: host or cells: E. coli host derived from BL21, T7 phage display
How it was run: as §1

[31] = target: T31, ABL2 (Homo sapiens, UniProt P42684)
T31 construct: host or cells: E. coli (BL21-derived), T7 phage lysate
How it was run: as §1

[32] = target: T32, EPHA1 (Homo sapiens, UniProt P21709)
T32 construct: purchased Ambit Biosciences Corp; host or cells: T7 phage in E. coli host derived from BL21
How it was run: as §1

[33] = target: T33, PHKG1 (Homo sapiens, UniProt Q16816)
T33 construct: host or cells: E. coli host derived from BL21, infected with T7 phage
How it was run: as §1

[34] = target: T34, PIM3 (Homo sapiens, UniProt Q86V86)
T34 construct: host or cells: T7 phage in E. coli host derived from BL21
How it was run: as §1

[35] = target: T35, TNIK (Homo sapiens, UniProt Q9UKE5)
T35 construct: host or cells: E. coli host derived from BL21, T7 phage
How it was run: as §1

T18 sequence (P49841 whole entry): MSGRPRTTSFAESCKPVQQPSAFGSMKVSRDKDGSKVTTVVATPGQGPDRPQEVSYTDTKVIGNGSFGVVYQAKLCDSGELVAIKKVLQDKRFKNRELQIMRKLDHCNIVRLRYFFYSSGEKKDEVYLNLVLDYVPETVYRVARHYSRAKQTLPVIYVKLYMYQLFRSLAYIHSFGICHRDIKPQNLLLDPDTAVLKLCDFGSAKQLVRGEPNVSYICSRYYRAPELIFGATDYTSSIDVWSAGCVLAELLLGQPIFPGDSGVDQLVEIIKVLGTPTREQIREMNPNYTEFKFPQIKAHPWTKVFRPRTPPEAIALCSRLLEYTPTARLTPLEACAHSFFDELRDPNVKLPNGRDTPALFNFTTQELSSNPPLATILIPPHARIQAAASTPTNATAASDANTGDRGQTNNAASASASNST
T2 sequence (P11362 22-822): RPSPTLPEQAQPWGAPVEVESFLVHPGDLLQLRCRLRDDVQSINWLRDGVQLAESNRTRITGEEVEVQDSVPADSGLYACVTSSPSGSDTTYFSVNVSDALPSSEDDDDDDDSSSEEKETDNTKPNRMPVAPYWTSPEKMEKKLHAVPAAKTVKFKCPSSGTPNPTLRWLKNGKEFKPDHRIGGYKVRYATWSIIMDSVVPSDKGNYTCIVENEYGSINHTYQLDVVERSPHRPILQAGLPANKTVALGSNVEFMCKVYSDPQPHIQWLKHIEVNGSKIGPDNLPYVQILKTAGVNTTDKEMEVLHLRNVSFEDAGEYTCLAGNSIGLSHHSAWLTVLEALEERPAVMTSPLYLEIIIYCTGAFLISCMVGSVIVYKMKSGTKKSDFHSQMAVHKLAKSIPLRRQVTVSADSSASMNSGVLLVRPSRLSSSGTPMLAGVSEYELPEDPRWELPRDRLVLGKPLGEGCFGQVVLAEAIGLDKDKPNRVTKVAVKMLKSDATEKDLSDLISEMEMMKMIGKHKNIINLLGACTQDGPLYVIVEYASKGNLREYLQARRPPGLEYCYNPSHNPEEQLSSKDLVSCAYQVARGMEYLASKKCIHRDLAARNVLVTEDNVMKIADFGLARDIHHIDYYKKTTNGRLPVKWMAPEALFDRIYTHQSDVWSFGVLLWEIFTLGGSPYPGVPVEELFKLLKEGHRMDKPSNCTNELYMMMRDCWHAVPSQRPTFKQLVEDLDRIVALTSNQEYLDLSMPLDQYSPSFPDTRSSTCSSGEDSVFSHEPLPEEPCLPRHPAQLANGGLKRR
T33 sequence (Q16816 whole entry): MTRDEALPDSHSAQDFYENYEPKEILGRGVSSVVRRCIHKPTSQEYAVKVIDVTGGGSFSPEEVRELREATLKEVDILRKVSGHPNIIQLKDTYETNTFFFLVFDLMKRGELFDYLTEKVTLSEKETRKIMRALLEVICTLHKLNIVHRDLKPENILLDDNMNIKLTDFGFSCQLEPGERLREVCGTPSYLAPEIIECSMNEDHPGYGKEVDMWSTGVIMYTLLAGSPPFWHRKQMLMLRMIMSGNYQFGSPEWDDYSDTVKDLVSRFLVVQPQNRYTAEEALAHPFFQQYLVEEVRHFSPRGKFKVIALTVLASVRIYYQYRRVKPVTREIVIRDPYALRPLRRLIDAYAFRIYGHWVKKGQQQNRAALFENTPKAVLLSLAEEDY
T15 sequence (Q9BZL6 whole entry): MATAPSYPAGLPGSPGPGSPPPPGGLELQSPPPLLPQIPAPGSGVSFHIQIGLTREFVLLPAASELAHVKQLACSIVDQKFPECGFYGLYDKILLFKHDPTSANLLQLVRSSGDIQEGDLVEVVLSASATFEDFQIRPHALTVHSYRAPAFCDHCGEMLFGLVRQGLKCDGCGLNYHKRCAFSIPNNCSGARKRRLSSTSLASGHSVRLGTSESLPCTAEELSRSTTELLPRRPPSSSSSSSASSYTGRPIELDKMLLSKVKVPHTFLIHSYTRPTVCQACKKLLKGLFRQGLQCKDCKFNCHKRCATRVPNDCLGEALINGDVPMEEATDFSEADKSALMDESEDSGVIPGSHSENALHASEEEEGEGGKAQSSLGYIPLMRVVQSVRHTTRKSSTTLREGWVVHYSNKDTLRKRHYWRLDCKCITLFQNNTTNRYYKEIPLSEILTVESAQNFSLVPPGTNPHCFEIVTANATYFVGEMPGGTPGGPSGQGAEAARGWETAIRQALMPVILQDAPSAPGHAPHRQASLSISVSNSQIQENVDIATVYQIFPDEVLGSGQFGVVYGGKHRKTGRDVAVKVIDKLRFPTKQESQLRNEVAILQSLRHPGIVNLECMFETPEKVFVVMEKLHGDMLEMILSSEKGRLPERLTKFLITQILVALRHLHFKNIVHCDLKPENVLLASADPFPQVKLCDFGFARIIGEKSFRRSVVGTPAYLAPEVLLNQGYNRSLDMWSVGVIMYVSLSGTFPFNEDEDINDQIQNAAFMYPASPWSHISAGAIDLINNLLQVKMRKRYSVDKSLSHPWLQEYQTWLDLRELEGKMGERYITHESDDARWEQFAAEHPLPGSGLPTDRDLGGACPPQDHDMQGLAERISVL
T20 sequence (P50613 whole entry): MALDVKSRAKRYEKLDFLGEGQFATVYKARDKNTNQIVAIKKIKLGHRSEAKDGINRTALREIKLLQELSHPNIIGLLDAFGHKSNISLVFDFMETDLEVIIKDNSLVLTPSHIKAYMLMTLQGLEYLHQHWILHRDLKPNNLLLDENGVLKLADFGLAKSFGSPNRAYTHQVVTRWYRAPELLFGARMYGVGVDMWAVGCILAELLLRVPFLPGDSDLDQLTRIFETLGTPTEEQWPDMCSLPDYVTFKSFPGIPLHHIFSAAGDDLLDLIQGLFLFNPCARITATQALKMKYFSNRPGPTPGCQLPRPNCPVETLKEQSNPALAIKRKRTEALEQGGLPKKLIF
T29 sequence (P14616 27-1297): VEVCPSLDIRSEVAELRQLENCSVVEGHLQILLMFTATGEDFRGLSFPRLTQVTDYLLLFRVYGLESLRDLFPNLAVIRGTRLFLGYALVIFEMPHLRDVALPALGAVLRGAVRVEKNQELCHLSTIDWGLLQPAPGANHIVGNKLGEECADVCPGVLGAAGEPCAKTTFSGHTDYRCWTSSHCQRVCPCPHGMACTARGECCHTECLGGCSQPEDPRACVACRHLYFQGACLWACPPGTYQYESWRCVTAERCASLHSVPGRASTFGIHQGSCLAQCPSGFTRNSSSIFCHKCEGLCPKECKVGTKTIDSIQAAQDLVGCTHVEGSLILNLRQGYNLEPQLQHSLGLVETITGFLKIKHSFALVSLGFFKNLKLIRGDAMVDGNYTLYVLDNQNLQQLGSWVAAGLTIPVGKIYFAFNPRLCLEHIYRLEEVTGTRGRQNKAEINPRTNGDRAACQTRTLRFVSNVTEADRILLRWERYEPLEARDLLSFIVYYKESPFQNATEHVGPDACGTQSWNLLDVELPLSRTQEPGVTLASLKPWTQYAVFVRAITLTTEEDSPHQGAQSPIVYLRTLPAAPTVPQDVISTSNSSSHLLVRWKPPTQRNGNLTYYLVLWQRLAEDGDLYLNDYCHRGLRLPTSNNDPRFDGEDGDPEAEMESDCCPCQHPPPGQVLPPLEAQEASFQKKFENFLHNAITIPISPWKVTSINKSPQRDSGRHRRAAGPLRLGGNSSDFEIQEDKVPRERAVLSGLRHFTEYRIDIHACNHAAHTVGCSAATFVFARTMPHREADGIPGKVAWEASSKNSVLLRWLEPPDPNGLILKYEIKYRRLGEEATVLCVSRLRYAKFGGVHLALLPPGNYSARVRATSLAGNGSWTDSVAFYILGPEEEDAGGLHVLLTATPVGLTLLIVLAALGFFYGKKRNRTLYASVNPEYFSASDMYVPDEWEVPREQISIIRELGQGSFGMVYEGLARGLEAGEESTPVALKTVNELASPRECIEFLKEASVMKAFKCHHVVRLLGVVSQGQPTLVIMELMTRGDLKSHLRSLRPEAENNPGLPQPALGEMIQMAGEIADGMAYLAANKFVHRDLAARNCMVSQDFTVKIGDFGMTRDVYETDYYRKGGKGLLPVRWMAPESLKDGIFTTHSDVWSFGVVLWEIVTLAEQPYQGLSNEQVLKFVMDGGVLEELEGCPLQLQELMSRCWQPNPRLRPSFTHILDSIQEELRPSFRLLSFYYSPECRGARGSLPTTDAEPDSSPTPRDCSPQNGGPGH
T11 sequence (O43353 whole entry): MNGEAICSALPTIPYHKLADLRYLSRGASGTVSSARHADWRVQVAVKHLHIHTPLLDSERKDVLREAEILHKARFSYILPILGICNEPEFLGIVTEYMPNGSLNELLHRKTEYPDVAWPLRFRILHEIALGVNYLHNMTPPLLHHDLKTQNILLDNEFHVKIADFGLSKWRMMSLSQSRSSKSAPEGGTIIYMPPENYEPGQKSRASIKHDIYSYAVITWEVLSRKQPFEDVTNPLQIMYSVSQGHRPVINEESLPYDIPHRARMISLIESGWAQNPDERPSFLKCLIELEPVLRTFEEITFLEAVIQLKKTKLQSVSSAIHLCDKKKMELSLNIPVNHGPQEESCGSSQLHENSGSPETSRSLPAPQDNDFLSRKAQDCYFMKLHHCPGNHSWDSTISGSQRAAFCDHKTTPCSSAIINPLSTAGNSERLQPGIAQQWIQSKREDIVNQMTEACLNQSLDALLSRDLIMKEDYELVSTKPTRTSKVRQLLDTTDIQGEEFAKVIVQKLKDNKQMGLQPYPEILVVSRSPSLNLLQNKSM

## C#Cc1cccc(Nc2ncnc3cc(OC)c(OCCCN4CCOCC4)cc23)c1 [NRC-2694, N-(3-ethynylphenyl)-7-methoxy-6-[3-(4-morpholinyl)propoxy]-4-quinazolinamine]
[1]
  remaining binding at 10 µM: 37%
[2]
  remaining binding at 10 µM: 64%
[3]
  remaining binding at 10 µM: 75%
[4]
  remaining binding at 10 µM: 65%
[5]
  remaining binding at 10 µM: 66%
[6]
  remaining binding at 10 µM: 77%
[7]
  remaining binding at 10 µM: 0%
[8]
  remaining binding at 10 µM: 69%
[9]
  remaining binding at 10 µM: 52%
[10]
  remaining binding at 10 µM: 7.6%
[11]
  remaining binding at 10 µM: 2.4%
[12]
  remaining binding at 10 µM: 100%
[13]
  remaining binding at 10 µM: 26%
[14]
  remaining binding at 10 µM: 41%
[15]
  remaining binding at 10 µM: 0.4%
[16]
  remaining binding at 10 µM: 25%
[17]
  remaining binding at 10 µM: 97%
[18]
  remaining binding at 10 µM: 100%
[19]
  remaining binding at 10 µM: 94%
[20]
  remaining binding at 10 µM: 0.55%
[21]
  remaining binding at 10 µM: 10%
[22]
  remaining binding at 10 µM: 64%
[23]
  remaining binding at 10 µM: 9.6%
[24]
  remaining binding at 10 µM: 90%
[25]
  remaining binding at 10 µM: 100%
[26]
  remaining binding at 10 µM: 96%
[27]
  remaining binding at 10 µM: 100%
[28]
  remaining binding at 10 µM: 20%
[29]
  remaining binding at 10 µM: 79%
[30]
  remaining binding at 10 µM: 65%
[31]
  remaining binding at 10 µM: 43%
[32]
  remaining binding at 10 µM: 55%
[33]
  remaining binding at 10 µM: 50%
[34]
  remaining binding at 10 µM: 23%
[35]
  remaining binding at 10 µM: 17%
